# Tested on: MV-4-11 cells
# Test: Gene expression microarray analysis (Affymetrix PrimeView) and GSEA
# Format: cell-based, human
# Design: RFU PODN (11730768_x_at) / Fold change /veh PODN (11730768_x_at) / RFU LINC00158 (11744669_a_at) / Fold change /veh LINC00158 (11744669_a_at) / RFU DUSP10 (11751237_a_at) / Fold change /veh DUSP10 (11751237_a_at) / RFU ID3 (11757404_x_at) / Fold change /veh ID3 (11757404_x_at) / RFU PLEKHG5 (11737974_s_at) / Fold change /veh PLEKHG5 (11737974_s_at) / RFU LRRC4B (11730491_at) / Fold change /veh LRRC4B (11730491_at) / RFU GIMAP4 (11747438_a_at) / Fold change /veh GIMAP4 (11747438_a_at) / RFU KRT8 (11758183_x_at) / Fold change /veh KRT8 (11758183_x_at) / RFU CNN1 (11734310_a_at) / Fold change /veh CNN1 (11734310_a_at) / RFU VPS37D (11726825_at) / Fold change /veh VPS37D (11726825_at) / RFU C10orf10 (11716522_x_at) / Fold change /veh C10orf10 (11716522_x_at) / RFU KIR2DL2 /// KIR2DL4 /// KIR2DL5A /// KIR2DL5B /// KIR2DS1 /// KIR2DS2 /// KIR2DS3 /// KIR2DS4 /// KIR3DL3 /// KIR3DL3 /// KIR3DS1 (11738374_at) / Fold change /veh KIR2DL2 /// KIR2DL4 /// KIR2DL5A /// KIR2DL5B /// KIR2DS1 /// KIR2DS2 /// KIR2DS3 /// KIR2DS4 /// KIR3DL3 /// KIR3DL3 /// KIR3DS1 (11738374_at) / RFU C1QL1 (11718748_at) / Fold change /veh C1QL1 (11718748_at) / RFU TMPRSS4 (11747572_a_at) / Fold change /veh TMPRSS4 (11747572_a_at) / RFU HAMP (11756126_x_at) / Fold change /veh HAMP (11756126_x_at) / RFU RNFT2 (11725882_a_at) / Fold change /veh RNFT2 (11725882_a_at) / RFU NR4A2 (11747474_a_at) / Fold change /veh NR4A2 (11747474_a_at) / RFU ABCC12 (11746883_a_at) / Fold change /veh ABCC12 (11746883_a_at) / RFU TMEM136 (11760407_x_at) / Fold change /veh TMEM136 (11760407_x_at) / RFU CLDN22 /// WWC2 (11732394_at) / Fold change /veh CLDN22 /// WWC2 (11732394_at) / RFU HLA-DPB1 (11760878_x_at) / Fold change /veh HLA-DPB1 (11760878_x_at) / RFU SPINT1 (11716480_a_at) / Fold change /veh SPINT1 (11716480_a_at) / RFU GAP43 (11754022_s_at) / Fold change /veh GAP43 (11754022_s_at) / RFU A4GNT (11735810_at) / Fold change /veh A4GNT (11735810_at) / RFU PRB3 (11715151_x_at) / Fold change /veh PRB3 (11715151_x_at) / RFU TUBB4B (11761932_at) / Fold change /veh TUBB4B (11761932_at) / RFU CAPN14 (11732068_a_at) / Fold change /veh CAPN14 (11732068_a_at) / RFU TMCC2 (11721928_a_at) / Fold change /veh TMCC2 (11721928_a_at) / RFU IRGQ (11745062_a_at) / Fold change /veh IRGQ (11745062_a_at) / RFU FAM174B (11720279_a_at) / Fold change /veh FAM174B (11720279_a_at) / RFU TMPRSS4 (11748680_a_at) / Fold change /veh TMPRSS4 (11748680_a_at) / RFU FAM212B (11763350_a_at) / Fold change /veh FAM212B (11763350_a_at) / RFU PLEKHG5 (11743358_a_at) / Fold change /veh PLEKHG5 (11743358_a_at) / RFU ZSCAN30 (11745921_a_at) / Fold change /veh ZSCAN30 (11745921_a_at) / RFU CMKLR1 (11741424_a_at) / Fold change /veh CMKLR1 (11741424_a_at) / RFU LOC101060620 /// MAPK8IP1 (11723275_at) / Fold change /veh LOC101060620 /// MAPK8IP1 (11723275_at) / RFU SPTSSB (11747773_x_at) / Fold change /veh SPTSSB (11747773_x_at) / RFU PRSS12 (11739890_at) / Fold change /veh PRSS12 (11739890_at) / RFU BIN1 (11741810_x_at) / Fold change /veh BIN1 (11741810_x_at) / RFU WNT11 (11732464_a_at) / Fold change /veh WNT11 (11732464_a_at) / RFU C10orf10 (11716521_a_at) / Fold change /veh C10orf10 (11716521_a_at) / RFU C5orf56 (11738089_at) / Fold change /veh C5orf56 (11738089_at) / RFU CYB561 (11721691_x_at) / Fold change /veh CYB561 (11721691_x_at) / RFU ANKRD19P (11752326_a_at) / Fold change /veh ANKRD19P (11752326_a_at) / RFU OR2T12 /// OR2T33 /// OR2T8 (11738714_s_at) / Fold change /veh OR2T12 /// OR2T33 /// OR2T8 (11738714_s_at) / RFU VCAN (11748164_a_at) / Fold change /veh VCAN (11748164_a_at) / RFU JSRP1 (11732532_at) / Fold change /veh JSRP1 (11732532_at) / RFU KRTAP10-11 (11738290_x_at) / Fold change /veh KRTAP10-11 (11738290_x_at) / RFU MYO3A (11730013_a_at) / Fold change /veh MYO3A (11730013_a_at) / RFU EBF3 (11725865_a_at) / Fold change /veh EBF3 (11725865_a_at) / RFU CAMK2N1 (11719241_x_at) / Fold change /veh CAMK2N1 (11719241_x_at) / RFU C5orf56 (11738088_a_at) / Fold change /veh C5orf56 (11738088_a_at) / RFU OLFML3 (11715873_a_at) / Fold change /veh OLFML3 (11715873_a_at) / RFU LOC100653217 /// NTM (11731650_a_at) / Fold change /veh LOC100653217 /// NTM (11731650_a_at) / RFU MAPK11 (11762145_a_at) / Fold change /veh MAPK11 (11762145_a_at) / RFU FIZ1 (11724087_x_at) / Fold change /veh FIZ1 (11724087_x_at) / RFU OASL (11726364_x_at) / Fold change /veh OASL (11726364_x_at) / RFU SOX15 (11748057_x_at) / Fold change /veh SOX15 (11748057_x_at) / RFU CD79A (11719716_a_at) / Fold change /veh CD79A (11719716_a_at) / RFU HIST1H1D (11736915_at) / Fold change /veh HIST1H1D (11736915_at) / RFU CASKIN2 (11723855_a_at) / Fold change /veh CASKIN2 (11723855_a_at) / RFU LOC730098 (11760151_x_at) / Fold change /veh LOC730098 (11760151_x_at) / RFU OR4N2 (11742367_at) / Fold change /veh OR4N2 (11742367_at) / RFU PRRT2 (11749266_a_at) / Fold change /veh PRRT2 (11749266_a_at) / RFU SNX32 (11753110_a_at) / Fold change /veh SNX32 (11753110_a_at) / RFU CDHR5 (11726645_a_at) / Fold change /veh CDHR5 (11726645_a_at) / RFU RCAN1 (11760418_a_at) / Fold change /veh RCAN1 (11760418_a_at) / RFU FAM167A (11723789_a_at) / Fold change /veh FAM167A (11723789_a_at) / RFU FAM26E (11764081_at) / Fold change /veh FAM26E (11764081_at) / RFU ISYNA1 (11749810_s_at) / Fold change /veh ISYNA1 (11749810_s_at) / RFU ACY1 (11761880_at) / Fold change /veh ACY1 (11761880_at) / RFU 11764098_at / Fold change /veh 11764098_at / RFU SAMD14 (11745864_x_at) / Fold change /veh SAMD14 (11745864_x_at) / RFU NPB (11741838_a_at) / Fold change /veh NPB (11741838_a_at) / RFU TMPRSS6 (11731388_a_at) / Fold change /veh TMPRSS6 (11731388_a_at) / RFU KRTAP10-2 (11738614_at) / Fold change /veh KRTAP10-2 (11738614_at) / RFU ARHGAP8 /// PRR5-ARHGAP8 (11727945_x_at) / Fold change /veh ARHGAP8 /// PRR5-ARHGAP8 (11727945_x_at) / RFU KRTAP5-7 /// NADSYN1 (11734609_at) / Fold change /veh KRTAP5-7 /// NADSYN1 (11734609_at) / RFU RASL12 (11751679_a_at) / Fold change /veh RASL12 (11751679_a_at) / RFU CDKN2B (11736163_a_at) / Fold change /veh CDKN2B (11736163_a_at) / RFU PRF1 (11729649_at) / Fold change /veh PRF1 (11729649_at) / RFU, ZNF638 /// ZNF638-IT1 / Fold change vs veh, ZNF638 /// ZNF638-IT1 / RFU, PANK3 / Fold change vs veh, PANK3 / RFU, SH3YL1 / Fold change vs veh, SH3YL1 / RFU, ZEB2 / Fold change vs veh, ZEB2 / RFU, NRIP1 / Fold change vs veh, NRIP1 / RFU, PTTG1IP / Fold change vs veh, PTTG1IP / RFU, CAPN2 / Fold change vs veh, CAPN2 / RFU, MED14 / Fold change vs veh, MED14 / RFU, SNORA58 / Fold change vs veh, SNORA58 / RFU, C1orf63 / Fold change vs veh, C1orf63 / RFU, LRRFIP1 / Fold change vs veh, LRRFIP1 / RFU, NDUFAF7 / Fold change vs veh, NDUFAF7 / RFU, SLC12A2 / Fold change vs veh, SLC12A2 / RFU, IBTK / Fold change vs veh, IBTK / RFU, ESF1 / Fold change vs veh, ESF1 / Fold change vs veh, TMEM50B / RFU, TAOK1 / Fold change vs veh, TAOK1 / RFU, ACBD3 / Fold change vs veh, ACBD3 / RFU, TMA16 / Fold change vs veh, TMA16 / RFU, RWDD3 / Fold change vs veh, RWDD3 / RFU, BCAT1 / Fold change vs veh, BCAT1 / RFU, EDEM3 / Fold change vs veh, EDEM3 / RFU, TMEM33 / Fold change vs veh, TMEM33 / RFU, WDR75 / Fold change vs veh, WDR75 / RFU, AHCTF1 / Fold change vs veh, AHCTF1 / RFU, TFRC / Fold change vs veh, TFRC / RFU, ZDHHC17 / Fold change vs veh, ZDHHC17 / RFU, NOM1 / Fold change vs veh, NOM1 / RFU, ARL8B / Fold change vs veh, ARL8B / RFU, ZBTB11 / Fold change vs veh, ZBTB11 / RFU, TAMM41 / Fold change vs veh, TAMM41 / RFU, KIAA1704 /// LOC100996395 / Fold change vs veh, KIAA1704 /// LOC100996395 / RFU, ING1 / Fold change vs veh, ING1 / RFU, TRMT61B / Fold change vs veh, TRMT61B / RFU, FUBP3 / Fold change vs veh, FUBP3 / RFU, TP53 / Fold change vs veh, TP53 / RFU, TNKS2 / Fold change vs veh, TNKS2 / RFU, ZFP14 / Fold change vs veh, ZFP14 / RFU, ACTR2 / Fold change vs veh, ACTR2 / RFU, PPP3R1 / Fold change vs veh, PPP3R1 / RFU, PIK3R1 / Fold change vs veh, PIK3R1 / RFU, HNRNPA1 / Fold change vs veh, HNRNPA1 / RFU, RNF170 / Fold change vs veh, RNF170 / RFU, ZNF28 / Fold change vs veh, ZNF28 / RFU, RNGTT / Fold change vs veh, RNGTT / RFU, OGT / Fold change vs veh, OGT / RFU, BRD1 / Fold change vs veh, BRD1 / RFU, MARS / Fold change vs veh, MARS / RFU, ZNF655 / Fold change vs veh, ZNF655 / RFU, FAHD1 / Fold change vs veh, FAHD1 / RFU, BDP1 / Fold change vs veh, BDP1 / RFU, LRRCC1 / Fold change vs veh, LRRCC1 / RFU, ARID1A / Fold change vs veh, ARID1A / RFU, ZNF146 / Fold change vs veh, ZNF146 / RFU, ZNF330 / Fold change vs veh, ZNF330 / RFU, GPN3 / Fold change vs veh, GPN3 / RFU, C9orf123 / Fold change vs veh, C9orf123 / RFU, N4BP2L2 / Fold change vs veh, N4BP2L2 / RFU, ARFIP1 / Fold change vs veh, ARFIP1 / RFU, FAM179B / Fold change vs veh, FAM179B / RFU, BCL10 / Fold change vs veh, BCL10 / RFU, UHRF1BP1L / Fold change vs veh, UHRF1BP1L / RFU, BET1 / Fold change vs veh, BET1 / RFU, CNOT2 / Fold change vs veh, CNOT2 / RFU, ZNF268 / Fold change vs veh, ZNF268 / Fold change vs veh, ZNF507 / RFU, DGCR2 / Fold change vs veh, DGCR2 / RFU, WDSUB1 / Fold change vs veh, WDSUB1 / Fold change vs veh, HSP90B1 /// MIR3652 / RFU, ADSS / Fold change vs veh, ADSS / RFU, GK / Fold change vs veh, GK / RFU, ZNF148 / Fold change vs veh, ZNF148 / RFU, TAF9 / Fold change vs veh, TAF9 / RFU, SLC1A5 / Fold change vs veh, SLC1A5 / RFU, SLMO2 / Fold change vs veh, SLMO2 / RFU, ABCC4 / Fold change vs veh, ABCC4 / RFU, LOC101060439 /// RAP1B / Fold change vs veh, LOC101060439 /// RAP1B / RFU, RFX7 / Fold change vs veh, RFX7 / RFU, GTPBP10 / Fold change vs veh, GTPBP10 / RFU, CNEP1R1 / Fold change vs veh, CNEP1R1 / RFU, BIVM-ERCC5 /// ERCC5 / Fold change vs veh, BIVM-ERCC5 /// ERCC5 / RFU, ILF3 / Fold change vs veh, ILF3 / RFU 11762660_at / Fold change /veh 11762660_at / RFU VCAN (11757783_s_at) / Fold change /veh VCAN (11757783_s_at) / RFU DDX43 (11728927_at) / Fold change /veh DDX43 (11728927_at) / RFU KRT8 (11758188_x_at) / Fold change /veh KRT8 (11758188_x_at) / RFU NKD1 (11759106_at) / Fold change /veh NKD1 (11759106_at) / RFU SRD5A1 (11742802_a_at) / Fold change /veh SRD5A1 (11742802_a_at) / RFU TPSAB1 /// TPSB2 (11721975_s_at) / Fold change /veh TPSAB1 /// TPSB2 (11721975_s_at) / RFU GSTM3 (11746129_a_at) / Fold change /veh GSTM3 (11746129_a_at) / RFU IL23R (11737362_x_at) / Fold change /veh IL23R (11737362_x_at) / RFU TMEM51 (11727254_a_at) / Fold change /veh TMEM51 (11727254_a_at) / RFU PIWIL2 (11732686_x_at) / Fold change /veh PIWIL2 (11732686_x_at) / RFU ORM1 (11744905_x_at) / Fold change /veh ORM1 (11744905_x_at) / RFU CCDC152 (11743942_at) / Fold change /veh CCDC152 (11743942_at) / RFU ECM1 (11717891_a_at) / Fold change /veh ECM1 (11717891_a_at) / RFU IL23R (11748794_a_at) / Fold change /veh IL23R (11748794_a_at) / RFU TNFAIP8L3 (11732012_x_at) / Fold change /veh TNFAIP8L3 (11732012_x_at) / RFU MBOAT4 (11741988_at) / Fold change /veh MBOAT4 (11741988_at) / RFU 11764193_at / Fold change /veh 11764193_at / RFU TMEM53 (11763286_at) / Fold change /veh TMEM53 (11763286_at) / RFU MAGEB2 (11727129_at) / Fold change /veh MAGEB2 (11727129_at) / RFU TMEM200A (11744735_a_at) / Fold change /veh TMEM200A (11744735_a_at) / RFU CCDC152 (11751479_a_at) / Fold change /veh CCDC152 (11751479_a_at) / RFU FAM211A (11726209_a_at) / Fold change /veh FAM211A (11726209_a_at) / RFU RGS16 (11746705_a_at) / Fold change /veh RGS16 (11746705_a_at) / RFU VCAN (11755009_s_at) / Fold change /veh VCAN (11755009_s_at) / RFU RHOB (11743442_s_at) / Fold change /veh RHOB (11743442_s_at) / RFU RGS16 (11720943_a_at) / Fold change /veh RGS16 (11720943_a_at) / RFU RGS16 (11720944_at) / Fold change /veh RGS16 (11720944_at) / RFU, VPS4B / Fold change vs veh, VPS4B / RFU, CREB1 / Fold change vs veh, CREB1 / RFU, DNAJC13 / Fold change vs veh, DNAJC13 / RFU, GNAQ / Fold change vs veh, GNAQ / RFU, CDK5R1 / Fold change vs veh, CDK5R1 / RFU, ZRANB3 / Fold change vs veh, ZRANB3 / RFU, CUL4A / Fold change vs veh, CUL4A / RFU, CCNY / Fold change vs veh, CCNY / RFU, UFL1 / Fold change vs veh, UFL1 / RFU, COG3 / Fold change vs veh, COG3 / RFU, DIAPH2 / Fold change vs veh, DIAPH2 / RFU, SKA2 / Fold change vs veh, SKA2 / RFU, AFF3 / Fold change vs veh, AFF3 / RFU, LMF1 / Fold change vs veh, LMF1 / RFU, IPO11 / Fold change vs veh, IPO11 / RFU, DFFB / Fold change vs veh, DFFB / RFU, FOXP1 / Fold change vs veh, FOXP1 / RFU, CARD8 / Fold change vs veh, CARD8 / RFU, STRN3 / Fold change vs veh, STRN3 / RFU, ADK / Fold change vs veh, ADK / RFU, RASSF2 / Fold change vs veh, RASSF2 / RFU, WIPF1 / Fold change vs veh, WIPF1 / RFU, LARP1B / Fold change vs veh, LARP1B / RFU, RASA1 / Fold change vs veh, RASA1 / RFU, RB1 / Fold change vs veh, RB1 / RFU, PPFIA1 / Fold change vs veh, PPFIA1 / RFU, MAT2A / Fold change vs veh, MAT2A / RFU, CCT5 / Fold change vs veh, CCT5 / RFU, WDR92 / Fold change vs veh, WDR92 / RFU, CUX1 / Fold change vs veh, CUX1 / RFU, TTC7A / Fold change vs veh, TTC7A / RFU, TMEM135 / Fold change vs veh, TMEM135 / RFU, DEPTOR / Fold change vs veh, DEPTOR / RFU, CPM / Fold change vs veh, CPM / RFU, DNAJB6 / Fold change vs veh, DNAJB6 / RFU, CACNA2D3 / Fold change vs veh, CACNA2D3 / RFU, DTX4 / Fold change vs veh, DTX4 / RFU, TFCP2 / Fold change vs veh, TFCP2 / RFU, GMCL1 /// GMCL1P1 / Fold change vs veh, GMCL1 /// GMCL1P1 / RFU, AEBP2 / Fold change vs veh, AEBP2 / RFU, SNHG1 /// SNORD22 /// SNORD25 /// SNORD26 /// SNORD27 /// SNORD28 /// SNORD29 /// SNORD31 / Fold change vs veh, SNHG1 /// SNORD22 /// SNORD25 /// SNORD26 /// SNORD27 /// SNORD28 /// SNORD29 /// SNORD31 / Fold change (Aza/veh), C12orf56 (ProbeSet 11735607_a_at) / Fold change (ACY-1035/veh), C12orf56 (ProbeSet 11735607_a_at) / Fold change (Aza/veh), FGFR1OP (ProbeSet 11751329_s_at) / Fold change (ACY-1035/veh), FGFR1OP (ProbeSet 11751329_s_at) / Fold change (Aza/veh), VPS36 (ProbeSet 11739960_a_at) / Fold change (ACY-1035/veh), VPS36 (ProbeSet 11739960_a_at) / RFU SYPL1 (11715823_x_at) / Fold change /veh SYPL1 (11715823_x_at) / RFU IGFBP7 (11715501_s_at) / Fold change /veh IGFBP7 (11715501_s_at) / RFU REEP3 (11722064_at) / Fold change /veh REEP3 (11722064_at) / RFU IGLL1 (11728026_x_at) / Fold change /veh IGLL1 (11728026_x_at): dose or concentration left out as unconfirmed
# Conditions: ProbeSet 11732433_s_at; LIST B
smiles,measurement,value
Nc1ncn([C@@H]2O[C@H](CO)[C@@H](O)[C@H]2O)c(=O)n1 [azacitidine],"RFU, GK",260.90 RFU
